ChEMBL document CHEMBL3352684, “Discovery of MK-3697: a selective orexin 2 receptor antagonist (2-SORA) for the treatment of insomnia” (Bioorg Med Chem Lett, 2014)
Converted amounts (≈) assume the structure as drawn.

What was measured:
[1] = molecular target: T1, Orexin receptor type 2 (Homo sapiens, UniProt O43614); experiment: Antagonist activity at human OX2R expressed in CHO cells assessed as inhibition of Ala-6,12-orexinA-induced effect after 5 mins by FLIPR assay; type: cell-based
T1 sequence (O43614 whole entry): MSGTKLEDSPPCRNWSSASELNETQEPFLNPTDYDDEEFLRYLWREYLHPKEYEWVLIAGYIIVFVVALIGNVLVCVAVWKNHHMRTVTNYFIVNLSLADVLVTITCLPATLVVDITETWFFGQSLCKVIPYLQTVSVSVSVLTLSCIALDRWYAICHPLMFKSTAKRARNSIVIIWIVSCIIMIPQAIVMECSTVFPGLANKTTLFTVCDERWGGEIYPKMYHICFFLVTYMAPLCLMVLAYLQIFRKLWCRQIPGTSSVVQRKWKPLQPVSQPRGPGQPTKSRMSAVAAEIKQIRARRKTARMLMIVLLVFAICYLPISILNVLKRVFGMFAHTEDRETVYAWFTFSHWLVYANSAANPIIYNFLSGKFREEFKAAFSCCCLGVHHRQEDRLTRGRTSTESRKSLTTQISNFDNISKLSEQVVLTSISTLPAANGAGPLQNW

[2] = molecular target: T2, Orexin/Hypocretin receptor type 1 (Homo sapiens, UniProt O43613, I408V); experiment: Antagonist activity at human OX1R I408V mutant expressed in CHO cells assessed as inhibition of Ala-6,12-orexinA-induced effect after 5 mins by FLIPR assay; type: cell-based
T2 sequence (O43613 whole entry I408V): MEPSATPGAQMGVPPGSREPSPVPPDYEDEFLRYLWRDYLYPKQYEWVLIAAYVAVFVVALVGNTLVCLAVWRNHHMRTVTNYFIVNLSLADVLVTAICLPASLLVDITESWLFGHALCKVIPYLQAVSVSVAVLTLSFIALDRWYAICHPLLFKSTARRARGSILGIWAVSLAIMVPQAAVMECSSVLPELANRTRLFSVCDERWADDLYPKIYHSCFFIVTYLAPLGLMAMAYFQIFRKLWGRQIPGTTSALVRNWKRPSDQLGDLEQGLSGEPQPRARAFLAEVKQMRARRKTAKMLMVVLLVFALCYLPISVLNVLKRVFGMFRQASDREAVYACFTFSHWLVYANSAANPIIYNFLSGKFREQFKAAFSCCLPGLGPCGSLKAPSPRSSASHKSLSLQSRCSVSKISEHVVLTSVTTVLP

[3] = Clearance in dog with cassette dosing; type: ADME, organism-based, Canis lupus familiaris; conditions: in vivo
[4] = molecular target: T2, Orexin/Hypocretin receptor type 1; experiment: Displacement of N-cyclobutyl-5-methyl-N-(2-([3H]-1-methyl-1H-benzo[d]imidazol-2-ylthio)ethyl)-2-(2H-1,2,3-triazol-2-yl)benzamide from human OX1R I408V mutant expressed in CHO cells by topcount analysis; type: cell-based
[5] = molecular target: T1, Orexin receptor type 2; experiment: Displacement of (S)-N-(2-(1H-pyrrol-1-yl)phenyl)-1-(2-([3H]-1-methyl-1H-benzo[d]imidazol-2-ylthio)acetyl)pyrrolidine-2-carboxamide from human OX2R expressed in CHO cells after 3 hrs by topcount analysis; type: cell-based
[6] = tested on: CHO; experiment: Selectivity ratio of Ki for human OX1R I408V mutant expressed in CHO cells to Ki for human OX2R expressed in CHO cells; type: cell-based
[7] = tested on: CHO; experiment: Selectivity ratio of IC50 for human OX1R Ile408Val mutant expressed in CHO cells to IC50 for human OX2R expressed in CHO cells; type: cell-based
[8] = Drug degradation in buffer assessed as compound remaining at pH 2 after 24 hrs; type: physicochemical; conditions: for remaining at 24 h: pH 2, read-out: Stability
[9] = molecular target: T3, CYP3A4 (Homo sapiens, UniProt P08684); experiment: (§1) Time dependent inhibition of CYP3A4 (unknown origin); type: ADME; conditions: human
T3 sequence (P08684 whole entry): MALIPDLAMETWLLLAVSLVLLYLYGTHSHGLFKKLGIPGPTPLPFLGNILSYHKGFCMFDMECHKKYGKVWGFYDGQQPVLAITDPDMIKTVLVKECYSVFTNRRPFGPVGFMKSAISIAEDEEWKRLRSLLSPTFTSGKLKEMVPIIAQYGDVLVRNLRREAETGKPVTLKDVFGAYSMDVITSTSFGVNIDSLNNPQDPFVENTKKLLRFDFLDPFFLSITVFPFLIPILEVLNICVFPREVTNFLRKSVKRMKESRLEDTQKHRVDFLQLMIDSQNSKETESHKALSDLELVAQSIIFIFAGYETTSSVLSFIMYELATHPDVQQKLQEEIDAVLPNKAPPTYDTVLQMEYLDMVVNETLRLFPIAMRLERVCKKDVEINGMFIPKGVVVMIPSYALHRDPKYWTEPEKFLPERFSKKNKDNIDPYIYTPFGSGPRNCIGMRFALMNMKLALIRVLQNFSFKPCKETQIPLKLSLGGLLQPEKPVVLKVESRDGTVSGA

[10] = molecular target: Cytochrome P450 3A4 (Homo sapiens, UniProt P08684); experiment: as §1; type: ADME
Sequence of Cytochrome P450 3A4 (P08684 whole entry): as above

[11] = molecular target: T3, CYP3A4; experiment: Ratio of Kinact to Ki for CYP3A4 (unknown origin); type: ADME
[12] = Solubility of the compound in buffer at pH 7; type: physicochemical
[13] = Solubility of the compound in buffer at pH 2; type: physicochemical

Compound `COc1ccc(CNC(=O)c2cc(-c3cncc(C)c3)ncc2N2CCOCC2)nc1OC` has an IC50 [1] of 3.5 µM, an IC50 [2] of 10 µM and a clearance [3] of 15 mL/min/kg. It also gave a Ki [4] of 1.5 µM, a Ki [5] of 0.075 µM and a Ratio Ki [6] of 20. The Ratio IC50 [7] was greater than 3.
In the case of `COc1ccc(CNC(=O)c2cc(-c3cncc(C)c3)ncc2-c2ccccc2)nc1OC`, the IC50 [1] is reported as 0.021 µM, the Stability ([8]; pH 2, 24 h) is reported as “Stable” and the IC50 [2] is reported as 2.8 µM. For the same compound, the clearance [3] was 15 mL/min/kg, the Ki [4] was 2.7 µM and the kinact [9] was 0.000217 s⁻¹. For the same compound, the Ki [10] was 5.6 µM, the Ki [5] was 0.0005 µM and the kinact/KI [11] was 217 M⁻¹ s⁻¹. It also gave a Ratio Ki [6] of 5400 and a Ratio IC50 [7] of 133.
`COc1ccc(CNC(=O)c2cc(-c3cncc(C)c3)ncc2-c2cncc(F)c2)nc1OC` showed an IC50 [1] of 0.057 µM, an IC50 [2] of 10 µM and a clearance [3] of 19 mL/min/kg. The Ki [4] was 17 µM, the Ki [5] was 0.0052 µM and the Ratio Ki [6] was 3270. For the same compound, the Ratio IC50 [7] was 192.
In the case of `COc1ccc(CNC(=O)c2sc(-c3cncc(C)c3)nc2-c2cccc(F)c2)nc1OC`, the IC50 [1] is reported as 1.06 µM, the IC50 [2] is reported as greater than 10 µM and the Ki [4] is reported as 12 µM. It also gave a Ki [5] of 0.14 µM, a Ratio Ki [6] of 86 and a Ratio IC50 [7] greater than 9.
In the case of `COc1ccc(CNC(=O)c2nc(-c3cncc(C)c3)ncc2-c2ccccc2)nc1OC`, the IC50 [1] is reported as 0.12 µM, the IC50 [2] is reported as greater than 10 µM and the clearance [3] is reported as 47 mL/min/kg. For the same compound, the Ki [4] was 23 µM, the Ki [5] was 0.011 µM and the Ratio IC50 [7] was greater than 83.
Work on `COc1ccc(CNC(=O)c2cc(-c3cncc(C)c3)nc3onc(-c4ccccc4)c23)nc1OC` yielded an IC50 [1] of 0.42 µM, an IC50 [2] greater than 10 µM and a Ki [4] of 4.1 µM. It also gave a Ki [5] of 0.009 µM, a Ratio Ki [6] of 456 and a Ratio IC50 [7] greater than 24.
For `COc1ccc(CNC(=O)c2nc(-c3cncc(C)c3)cnc2-c2ccccc2)nc1OC`, the IC50 [1] was 0.031 µM, the IC50 [2] was greater than 20 µM and the clearance [3] was 37 mL/min/kg. The Ki [4] was 8.5 µM, the Ratio Ki [6] was 6070 and the Ratio IC50 [7] was greater than 645.
`COc1ccc(CNC(=O)c2cc(-c3cncc(C)c3)cnc2-c2ccccc2)nc1OC` gave an IC50 [1] of 0.013 µM, a solubility [12] of 61 µM (≈ 26.9 µg/mL) and a remaining at 24 h [8] of 100%. For the same compound, the IC50 [2] was 2 µM, the clearance [3] was 27 mL/min/kg and the solubility [13] was 180 µM (≈ 79.3 µg/mL). It also gave a Ki [4] of 0.72 µM, a Ki [5] of 0.0003 µM and a Ratio Ki [6] of 2400. It also gave a Ratio IC50 [7] of 154.
In the case of `COc1ccc(CNC(=O)c2cc(-c3cncc(C)c3)ncc2-c2cnccn2)nc1OC`, the IC50 [1] is reported as 0.109 µM, the IC50 [2] is reported as 10 µM and the clearance [3] is reported as 24 mL/min/kg. The Ki [4] was 31 µM, the Ki [5] was 0.0076 µM and the Ratio Ki [6] was 4080. For the same compound, the Ratio IC50 [7] was greater than 92.
`COc1ccc(CNC(=O)c2cc(-c3cncc(C)c3)nnc2-c2ccccc2)nc1OC` showed an IC50 [1] of 0.17 µM, an IC50 [2] greater than 10 µM and a Ki [4] of 15 µM. It also gave a Ki [5] of 0.011 µM, a Ratio Ki [6] of 1360 and a Ratio IC50 [7] greater than 59.
For `COc1ccc(CNC(=O)c2cc(-c3cncc(C)c3)ncc2N2CCC2)nc1OC`, the IC50 [1] was 0.083 µM, the IC50 [2] was 10 µM and the clearance [3] was 19 mL/min/kg. The Ki [4] was 18 µM, the Ki [5] was 0.01 µM and the Ratio Ki [6] was 1800. It also gave a Ratio IC50 [7] greater than 120.
`COc1ccc(CNC(=O)c2nc(-c3cncc(C)c3)ccc2-c2ccccc2)nc1OC` showed a clearance [3] of 28 mL/min/kg, a Ki [4] of 2.4 µM and a Ki [5] of 0.043 µM. The Ratio Ki [6] was 56.
For `COc1ccc(CNC(=O)c2cc(-c3cncc(C)c3)ncc2-c2cccc(F)c2)nc1OC`, the IC50 [1] was 0.016 µM, the IC50 [2] was 1.95 µM and the clearance [3] was 18 mL/min/kg. It also gave a Ki [4] of 4 µM, a Ratio Ki [6] of 4440 and a Ratio IC50 [7] of 122.
For `COc1ccc(CNC(=O)c2cc(-c3cncc(C)c3)ncc2-c2ccnnc2)nc1OC`, the IC50 [1] was 1.45 µM, the IC50 [2] was 15 µM and the Ki [4] was 39 µM. It also gave a Ki [5] of 0.193 µM, a Ratio Ki [6] of 202 and a Ratio IC50 [7] greater than 10.
`COc1ccc(CNC(=O)c2cc(-c3cncc(Cl)c3)cnc2-c2ccccn2)nc1OC` [MK-1064] gave a kinact [9] of 0.00183 s⁻¹, a Ki [10] of 9.5 µM and a kinact/KI [11] of 200 M⁻¹ s⁻¹.
With `COc1ccc(CNC(=O)c2cc(-c3cncc(Cl)c3)cnc2-c2ccccc2)nc1OC` the solubility [12] was 10 µM (≈ 4.61 µg/mL), the remaining at 24 h [8] was 100% and the solubility [13] was 16 µM (≈ 7.37 µg/mL).
`COc1ccc(CNC(=O)c2cc(-c3cncc(C)c3)ncc2-c2ccccc2F)nc1OC` gave an IC50 [1] of 0.025 µM, an IC50 [2] of 3 µM and a clearance [3] of 17 mL/min/kg. The Ki [4] was 8.6 µM, the Ki [5] was 0.0014 µM and the Ratio Ki [6] was 6140. For the same compound, the Ratio IC50 [7] was 120.
For `COc1ccc(CNC(=O)c2cc(-c3cncc(C)c3)ncc2-c2cnn(C)c2)nc1OC`, the IC50 [1] was 0.167 µM, the IC50 [2] was 10 µM and the Ki [4] was 0.93 µM. It also gave a Ki [5] of 0.0041 µM, a Ratio Ki [6] of 227 and a Ratio IC50 [7] greater than 60.
With `COc1ccc(CNC(=O)c2cc(-c3cncc(C)c3)ncc2-c2ccccn2)nc1OC` the IC50 [1] was 0.036 µM, the IC50 [2] was 4.65 µM and the Ki [4] was 7.9 µM. The Ki [5] was 0.0014 µM, the Ratio Ki [6] was 5640 and the Ratio IC50 [7] was 129.
Work on `COc1ccc(CNC(=O)c2cc(-c3cncc(C)c3)ncc2N2CCCC2)nc1OC` yielded an IC50 [1] of 0.037 µM, an IC50 [2] of 10 µM and a Ki [4] of 14 µM. It also gave a Ki [5] of 0.0045 µM, a Ratio Ki [6] of 3110 and a Ratio IC50 [7] greater than 270.
In the case of `COc1ccc(CNC(=O)c2cc(-c3cncc(C)c3)ccc2-c2ccccc2)nc1OC`, the IC50 [1] is reported as 0.014 µM, the IC50 [2] is reported as 1.54 µM and the clearance [3] is reported as 51 mL/min/kg. The Ki [4] was 1 µM, the Ki [5] was 0.0003 µM and the Ratio Ki [6] was 3330. For the same compound, the Ratio IC50 [7] was 110.
